Results on five compounds are retold here after ChEMBL document CHEMBL3886524, “Heteroaryl pyridone and aza-pyridone compounds with electrophilic functionality” (2016).

Molecules are shown by their SMILES.

In general, Ki refers to a dissociation constant, usually derived from enzyme kinetics or from competition with a known ligand.

The target in the experiment is Tyrosine-protein kinase BTK (Homo sapiens, UniProt Q06187). Kind of experiment: Biochemical Btk Assay: A generalized procedure for a standard biochemical Btk, Kinase Assay that can be used to test Formula I compounds is as follows. A master mix minus Btk enzyme is prepared containing 1x Cell Signaling kinase buffer (25 mM Tris-HCl, pH 7.5, 5 mM beta-glycerophosphate, 2 mM dithiothreitol, 0.1 mM Na3VO4, 10 mM MgCl2), 0.5 uM Promega PTK Biotinylated peptide substrate 2, and 0.01% BSA. A master mix plus Btk enzyme is prepared containing 1x Cell Signaling kinase buffer, 0.5 uM PTK Biotinylated peptide substrate 2, 0.01% BSA, and 100 ng/well (0.06 mU/well) Btk enzyme. Btk enzyme is prepared as follows: full length human wildtype Btk (accession number NM-000061) with a C-terminal V5 and 6xHis tag was subcloned into pFastBac vector (Invitrogen/Life Technologies) for making baculovirus carrying this epitope-tagged Btk.
Sequence of Tyrosine-protein kinase BTK (Q06187 whole entry): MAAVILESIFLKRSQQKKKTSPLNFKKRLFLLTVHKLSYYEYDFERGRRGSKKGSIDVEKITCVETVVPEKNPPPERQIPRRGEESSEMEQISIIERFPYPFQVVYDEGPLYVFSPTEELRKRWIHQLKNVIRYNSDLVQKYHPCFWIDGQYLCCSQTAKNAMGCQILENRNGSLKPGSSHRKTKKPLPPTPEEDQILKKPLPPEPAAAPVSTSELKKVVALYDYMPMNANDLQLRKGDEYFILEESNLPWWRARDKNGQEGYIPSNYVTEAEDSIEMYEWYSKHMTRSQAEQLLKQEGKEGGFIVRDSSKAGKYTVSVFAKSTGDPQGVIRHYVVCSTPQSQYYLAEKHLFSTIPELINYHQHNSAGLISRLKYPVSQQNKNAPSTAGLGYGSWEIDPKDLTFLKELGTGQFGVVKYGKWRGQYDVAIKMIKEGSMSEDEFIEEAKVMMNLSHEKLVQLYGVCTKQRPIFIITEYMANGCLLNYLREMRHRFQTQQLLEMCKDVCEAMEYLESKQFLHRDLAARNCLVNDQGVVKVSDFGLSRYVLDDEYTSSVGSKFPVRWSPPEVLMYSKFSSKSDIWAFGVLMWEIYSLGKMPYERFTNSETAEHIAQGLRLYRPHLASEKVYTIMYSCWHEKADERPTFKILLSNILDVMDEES

As to `C=C(C#N)C(=O)NCCOc1cccc(Nc2cc(-c3ccnc(N4CCn5c(cc6c5CC(C)(C)C6)C4=O)c3CO)cn(C)c2=O)n1`, the Ki came to 1.7 nM. In the case of `CC#CC(=O)NCCOc1cccc(Nc2cc(-c3ccnc(N4CCn5c(cc6c5CC(C)(C)C6)C4=O)c3CO)cn(C)c2=O)n1`, the Ki amounted to 2.37 nM. With `C=CC(=O)N[C@H]1CCCN(c2cccc(Nc3cc(-c4ccnc(N5CCn6c(cc7c6CC(C)(C)C7)C5=O)c4CO)cn(C)c3=O)n2)C1`, the Ki is 0.888 nM. To `C=CC(=O)NCCNc1cccc(Nc2cc(-c3ccnc(N4CCn5c(cc6c5CC(C)(C)C6)C4=O)c3CO)cn(C)c2=O)n1` belongs 4.33 nM; to `C=CC(=O)NCCN(C)c1cccc(Nc2cc(-c3ccnc(N4CCn5c(cc6c5CC(C)(C)C6)C4=O)c3CO)cn(C)c2=O)n1`, 0.683 nM.
